Measured values as given in patent US7348025B2, “Small particle liposome aerosols for delivery of anticancer drugs” (priority 1999, dated 2008).
Values joined by “and” are separate entries in the source; they are usually repeats but may differ in a detail not shown here. Identical values can stand only once. Like-named read-outs stand apart in the source and are kept apart here.

Columns and labels:
[1] = Tissue distribution of CPT after inhalation of CPT liposome aerosol; assay type: in vivo, Mouse; conditions: mice; for CPT in tissue: individual animals; for concentration at 15 min: mouse, in vivo, 486 ng per mouse, 4 animals, read-out: MEAN (±SD) CPT in tissue
Method: The final suspension was clear. If precipitation occurred, it was reheated to 50-60° C. The preparation was frozen in liquid nitrogen and lyophilized overnight. For use the material was dissolved in sterile water to the appropriate drug concentration, not exceeding 1.0 mg/ml for either drug. The efficiency of incorporation of drug in the liposomes was examined qualitatively by microscopic examination under polarized light. Unincorporated drug was seen as bi-refringent crystals. The efficiency of incorporation was examined by centrifugation of aqueous suspensions of liposomes on Percoll™ gradients. One-tenth ml of suspension was layered over 2 ml of gradient and centrifuged at 2000 rpm for 25-30 minutes. Liposomes layer at the water-Percoll interface, while unincorporated drug was deposited at the bottom of the tube. Many other lipids may be substituted for DLPC in the formulation and use of liposomes for delivery of drugs by aerosol (26).
(§1) The mobile phase was 30% acetonitrile and 70% of 0.1% glacial acetic acid. CPT was detected using the Waters 470 scanning fluorescence detector set to an excitation wavelength of 370 nm and an emission wavelength of 440 nm. […] The data were analyzed with the Waters Millenium software.
The deposited dose was calculated to be 486 ng per mouse. The mean concentrations in lungs and liver were similar with smaller concentrations in the other sites examined. […] Drug was cleared promptly from the lungs so that 15 minutes after stopping nebulization only negligible amounts of drug were present in the lungs. Liver, kidney and spleen had substantial amounts of drug initially which gradually diminished through the one hour of study. […] These studies indicate substantial immediate deposition of drug in the lungs with rapid clearance to the viscera. The amount of drug contributed by absorption from swallowed drug is uncertain.

[2] = Time dependent organ distribution of CPT after intranasal administration of DLPC liposomes; assay type: in vivo; conditions: other: intranasal instillation, mice, intranasal DLPC liposomal CPT 7 μg per mouse, read-out: CPT in tissue
Method: The mobile phase was 30% acetonitrile and 70% of 0.1% glacial acetic acid. CPT was detected using the Waters 470 scanning fluorescence detector set to an excitation wavelength of 370 nm and an emission wavelength of 440 nm. […] The data were analyzed with the Waters Millenium software. […]
CPT was administered in liposomal formulation prepared with DLPC with initial drug concentration 0.2 mg/ml.
35 μL of suspension was installed to each animal (group of 3 animals was treated for each time point).

[3] = Time dependent organ distribution of CPT after intramuscular administration; assay type: in vivo; conditions: mouse, mice, i.m. CPT in DMSO/saline suspension, read-out: CPT in tissue
Method: as §1
Drug disappeared very slowly from the site of intramuscular injection in the first 12 hours, with only very small concentrations detected in the liver and virtually no drug present at other sites. Concentrations in the blood were negligible throughout the study. The dose administered was the same as that given by intranasal instillation. These findings indicate a speedier and more efficient systemic absorption of drug after pulmonary administration of drug than by the intramuscular route. It is likely that deposition in organs and vascular spaces will increase the opportunity for exposure to albumin molecules and degradation to the carboxyl form of the drug.

[4] = Blood, after 15 minutes inhalation of CPT liposome aerosol
[5] = Kidney, after 15 minutes inhalation of CPT liposome aerosol
[6] = Liver, after 15 minutes inhalation of CPT liposome aerosol
[7] = Spleen, after 15 minutes inhalation of CPT liposome aerosol
[8] = site of injection, 7 µg/mouse, Site of inj.
[9] = whole blood, 7 μg per mouse, Blood

## CC[C@@]1(O)C(=O)OCc2c1cc1n(c2=O)Cc2cc3ccccc3nc2-1 [CPT, 20-S-camptothecin]
[1]; [4]
  CPT in tissue: 7.1 ng/gm and 8.3 ng/gm and 22.6 ng/gm and 17.7 ng/gm
  concentration at 15 min: 13.9 ± 7.5 ng/g
[1]; [5]
  CPT in tissue: 21.8 ng/gm and 18.0 ng/gm and 50.0 ng/gm and 29.3 ng/gm
  concentration at 15 min: 29.8 ± 14.3 ng/g
[1]; [6]
  CPT in tissue: 44.3 ng/gm (2×) and 21.9 ng/gm and 178.0 ng/gm
  concentration at 15 min: 72.1 ± 71.4 ng/g
[1]; Lung, after 15 minutes inhalation of CPT liposome aerosol (0.2 mg/ml in nebulizer)
  CPT in tissue: 48.0 ng/gm and 27.0 ng/gm and 77.5 ng/gm and 52.0 ng/gm
[1]; [7]
  CPT in tissue: 16.4 ng/gm and 11.4 ng/gm and 25.0 ng/gm and 12.0 ng/gm
  concentration at 15 min: 16.2 ± 6.3 ng/g
[1]; Lung, after 15 minutes inhalation of CPT liposome aerosol
  concentration at 15 min: 51.1 ± 20.7 ng/g
[2]; Kidney
  concentration at 0 min: 542 ± 174 ng/g
  concentration at 15 min: 190 ± 57 ng/g
  concentration at 30 min: 49 ± 13 ng/g
  concentration at 60 min: 24 ± 21 ng/g
[2]; Liver
  concentration at 0 min: 651 ± 418 ng/g
  concentration at 15 min: 255 ± 101 ng/g
  concentration at 30 min: 66 ± 17 ng/g
  concentration at 60 min: 34 ± 7 ng/g
[2]; Lung
  concentration at 0 min: 1290 ± 657 ng/g
  concentration at 15 min: 19 ± 3 ng/g
  concentration at 30 min: 36 ± 23 ng/g
  concentration at 60 min: 7 ± 3 ng/g
[2]; Spleen
  concentration at 0 min: 351 ± 137 ng/g
  concentration at 15 min: 84 ± 32 ng/g
  concentration at 30 min: 21 ± 8 ng/g
  concentration at 60 min: 7 ± 2 ng/g
[2]; whole blood, Blood
  concentration at 0 min: 213 ± 19 ng/g
  concentration at 15 min: 53 ± 20 ng/g
  concentration at 30 min: 8 ± 3 ng/g
  concentration at 60 min: 4 ± 2 ng/g
[3]; 7 μg per mouse, Kidney
  concentration at 0 min: 2 ng/g
  concentration at 30 min: 40 ± 14 ng/g
  concentration at 60 min: 26 ± 7 ng/g
  concentration at 1200 min: 15 ± 5 ng/g
[3]; 7 μg per mouse, Spleen
  concentration at 0 min: 2 ± 1 ng/g
  concentration at 30 min: 18 ± 9 ng/g
  concentration at 60 min: 11 ± 5 ng/g
  concentration at 1200 min: 5 ± 1 ng/g
[3]; 7 µg/mouse, Blood
  concentration at 60 min: 8 ± 1 ng/g
  concentration at 1200 min: 4 ± 1 ng/g
[3]; 7 µg/mouse, Liver
  concentration at 0 min: 3 ± 1 ng/g
  concentration at 30 min: 87 ± 74 ng/g
  concentration at 60 min: 136 ± 107 ng/g
  concentration at 1200 min: 126 ± 116 ng/g
[3]; 7 µg/mouse, Lung
  concentration at 0 min: 2 ± 1 ng/g
  concentration at 30 min: 4 ± 2 ng/g
  concentration at 60 min: 3 ± 3 ng/g
  concentration at 1200 min: 4 ± 3 ng/g
[3]; [8]
  concentration at 0 min: 6920 ± 265 ng/g
  concentration at 30 min: 4310 ± 1550 ng/g
  concentration at 60 min: 4610 ± 1410 ng/g
  concentration at 1200 min: 1540 ± 751 ng/g
[3]; [9]
  concentration at 0 min: 2 ± 1 ng/g
  concentration at 30 min: 12 ± 5 ng/g
